Entries after “also recorded” stand apart in the source; their conditions may differ. Read-outs that look alike come from different tables or passages of the source.
Columns and labels:
[1] = target: T1, jack bean urease (Canavalia ensiformis, UniProt P07374); test: Antiurease assay; type: biochemical; conditions: for % inhibition (urease): inhibitor concentration not given
[2] = target: T1, jack bean urease; test: Enzyme kinetic studies; type: biochemical; conditions: for Vmax (app): at an inhibitor concentration of 20 μM; for mode of inhibition: urease, Lineweaver–Burk plots

T1 sequence (P07374 whole entry, looked up): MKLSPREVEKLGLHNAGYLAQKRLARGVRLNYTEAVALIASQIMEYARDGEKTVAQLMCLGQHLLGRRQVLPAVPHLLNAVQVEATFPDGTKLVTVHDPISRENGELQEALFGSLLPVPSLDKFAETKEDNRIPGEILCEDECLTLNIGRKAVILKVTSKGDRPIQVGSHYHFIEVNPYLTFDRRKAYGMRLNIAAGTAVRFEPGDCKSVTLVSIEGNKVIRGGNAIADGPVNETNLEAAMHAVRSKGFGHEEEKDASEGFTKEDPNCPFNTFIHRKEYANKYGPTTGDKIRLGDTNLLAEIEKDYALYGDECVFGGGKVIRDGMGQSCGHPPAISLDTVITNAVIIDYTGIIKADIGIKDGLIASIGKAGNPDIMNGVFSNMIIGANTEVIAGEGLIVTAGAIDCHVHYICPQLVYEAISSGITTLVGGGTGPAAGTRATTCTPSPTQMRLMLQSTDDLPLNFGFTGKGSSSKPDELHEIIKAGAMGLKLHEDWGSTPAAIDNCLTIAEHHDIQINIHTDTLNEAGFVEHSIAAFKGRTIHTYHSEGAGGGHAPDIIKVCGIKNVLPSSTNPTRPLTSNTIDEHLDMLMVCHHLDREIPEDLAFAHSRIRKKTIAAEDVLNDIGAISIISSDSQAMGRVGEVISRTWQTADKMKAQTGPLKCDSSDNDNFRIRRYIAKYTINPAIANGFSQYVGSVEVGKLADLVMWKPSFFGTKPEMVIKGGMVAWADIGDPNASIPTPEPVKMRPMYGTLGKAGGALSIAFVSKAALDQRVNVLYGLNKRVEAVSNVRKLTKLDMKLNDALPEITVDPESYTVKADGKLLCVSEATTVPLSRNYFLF

Row | IC50 [1] [µM] | % inhibition (urease) ([1]; jack bean urease) [%] | Ki [2] [µM] | Vmax (app) [2] [µM/min] | mode of inhibition [2] | Compound | IC50 ([1]; read-out: IC50 (μM), mean ± SEM, jack bean urease, mean ± SEM) [µM] | Ki ([2]; read-out: Ki (inhibition constant), calculated from secondary Lineweaver–Burk plots) [µM]
1 | 36.08 ± 0.28 | 64.1 |  |  |  | CC(=O)NS(=O)(=O)c1ccc(NC(=O)c2ccccc2Nc2cccc(C)c2C)cc1 [conjugate 18, N-(4-(N-Acetylsulfamoyl)phenyl)-2-((2,3-dimethylphenyl)amino)benzamide] |  | 
2 | 9.5 ± 0.28 | 85.9 | 10.8 | 2.27 | mixed | Cc1ccnc(NS(=O)(=O)c2ccc(NC(=O)Cc3ccccc3Nc3c(Cl)cccc3Cl)cc2)n1 [conjugate 8, 2-(2-((2,6-Dichlorophenyl)amino)phenyl)-N-(4-(N-(4-methylpyrimidin-2-yl)sulfamoyl)phenyl)acetamide] |  | 
3 | 23.1 ± 0.49 | 73.4 |  |  |  | Cc1noc(NS(=O)(=O)c2ccc(NC(=O)Cc3ccccc3Nc3c(Cl)cccc3Cl)cc2)c1C [conjugate 5, 2-(2-((2,6-Dichlorophenyl)amino)phenyl)-N-(4-(N-(3,4-dimethylisoxazol-5-yl)sulfamoyl)phenyl)acetamide] |  | 
4 | 4.35 ± 0.23 | 78.7 | 1.09 | 1.11 | mixed | N=C(N)NS(=O)(=O)c1ccc(NC(=O)Cc2ccccc2Nc2c(Cl)cccc2Cl)cc1 [conjugate 11, N-(4-(N-Carbamimidoylsulfamoyl)phenyl)-2-(2-((2,6-dichlorophenyl)amino)phenyl)acetamide] |  | 
5 | 33.34 ± 0.21 | 77.3 |  |  |  | Cc1cc(NS(=O)(=O)c2ccc(NC(=O)Cc3ccccc3Nc3c(Cl)cccc3Cl)cc2)no1 [conjugate 9, 2-(2-((2,6-Dichlorophenyl)amino)phenyl)-N-(4-(N-(5-methylisoxazol-3-yl)sulfamoyl)phenyl)acetamide] |  | 
6 | 7.92 ± 0.27 | 84.9 | 1.04 | 6.36 | mixed | Cc1cccc(Nc2ccccc2C(=O)Nc2ccc(S(=O)(=O)Nc3ncccn3)cc2)c1C [conjugate 15, 2-((2,3-Dimethylphenyl)amino)-N-(4-(N-(pyrimidin-2-yl)sulfamoyl)phenyl)benzamide] |  | 
7 | 31.32 ± 0.29 | 79.2 |  |  |  | Cc1cccc(Nc2ccccc2C(=O)Nc2ccc(S(=O)(=O)NC(=N)N)cc2)c1C [conjugate 19, N-(4-(N-Carbamimidoylsulfamoyl)phenyl)-2-((2,3-dimethylphenyl)amino)benzamide] |  | 
8 | 30.49 ± 0.28 | 83.6 |  |  |  | O=C(Cc1ccccc1Nc1c(Cl)cccc1Cl)Nc1ccc(S(=O)(=O)Nc2ncccn2)cc1 [conjugate 7, 2-(2-((2,6-Dichlorophenyl)amino)phenyl)-N-(4-(N-(pyrimidin-2-yl)sulfamoyl)phenyl)acetamid] |  | 
9 | 15.9 ± 0.25 | 94.1 | 4.82 | 3.03 | mixed | Cc1cccc(Nc2ccccc2C(=O)Nc2ccc(S(=O)(=O)Nc3onc(C)c3C)cc2)c1C [conjugate 13, N-(4-(N-(3,4-Dimethylisoxazol-5-yl)sulfamoyl)phenyl)-2-((2,3-dimethylphenyl)amino)benzamide] |  | 
10 | 94.99 ± 0.22 | 68.3 |  |  |  | Cc1ccnc(NS(=O)(=O)c2ccc(NC(=O)c3ccccc3Nc3cccc(C)c3C)cc2)n1 [conjugate 16, 2-((2,3-Dimethylphenyl)amino)-N-(4-(N-(4-methylpyrimidin-2-yl)sulfamoyl)phenyl)benzamide] |  | 
11 | 16.2 ± 0.21 | 71.3 | 16.3 | 0.755 | mixed | O=C(Cc1ccccc1Nc1c(Cl)cccc1Cl)Nc1ccc(S(=O)(=O)Nc2nccs2)cc1 [conjugate 6, 2-(2-((2,6-Dichlorophenyl)amino)phenyl)-N-(4-(N-(thiazol-2-yl)sulfamoyl)phenyl)acetamide] |  | 
12 | 14.8 ± 0.27 | 82.9 | 1.65 | 2.28 | mixed | Cc1cccc(Nc2ccccc2C(=O)Nc2ccc(S(=O)(=O)Nc3nccs3)cc2)c1C [conjugate 14, 2-((2,3-Dimethylphenyl)amino)-N-(4-(N-(thiazol-2-yl)sulfamoyl)phenyl)benzamide] |  | 

Row | Compound | IC50 [1] [µM] | % inhibition (urease) ([1]; jack bean urease) [%] | Ki [2] [µM] | Vmax (app) [2] [µM/min] | mode of inhibition [2] | IC50 ([1]; read-out: IC50 (μM), mean ± SEM, jack bean urease, mean ± SEM) [µM] | Ki ([2]; read-out: Ki (inhibition constant), calculated from secondary Lineweaver–Burk plots) [µM]
13 | Cc1cc(NS(=O)(=O)c2ccc(NC(=O)c3ccccc3Nc3cccc(C)c3C)cc2)no1 [conjugate 17, 2-((2,3-Dimethylphenyl)amino)-N-(4-(N-(5-methylisoxazol-3-yl)sulfamoyl)phenyl)benzamide] | 8.35 ± 0.26 |  | 0.46 | 8.54 | competitively; also recorded: competitive |  | 
14 | Cc1cccc(Nc2ccccc2C(=O)Nc2ccc(S(N)(=O)=O)cc2)c1C [conjugate 12, 2-((2,3-Dimethylphenyl)amino)-N-(4-sulfamoylphenyl)benzamide] | 18.7 ± 0.21 | 91.6 | 3.06 | 8.62 | competitively; also recorded: competitive |  | 
15 | NC(N)=S [thiourea, reference compound] |  | 92.3 |  | 18.61 | competitive | 22.6 ± 0.23 | 18.2
16 | CC(=O)NS(=O)(=O)c1ccc(NC(=O)Cc2ccccc2Nc2c(Cl)cccc2Cl)cc1 [conjugate 10, N-(4-(N-Acetylsulfamoyl)phenyl)-2-(2-((2,6-dichlorophenyl)amino)phenyl)acetamide] | 5.49 ± 0.34 | 84.5 | 2.73 | 3.46 | competitively; also recorded: competitive |  | 

Reference: publication PMC10702309 (ACS Omega, 2023)
